Target: T1, m-OLF (myocilin OLF domain) (Homo sapiens, UniProt Q99972)
T1 sequence (Q99972 244-504): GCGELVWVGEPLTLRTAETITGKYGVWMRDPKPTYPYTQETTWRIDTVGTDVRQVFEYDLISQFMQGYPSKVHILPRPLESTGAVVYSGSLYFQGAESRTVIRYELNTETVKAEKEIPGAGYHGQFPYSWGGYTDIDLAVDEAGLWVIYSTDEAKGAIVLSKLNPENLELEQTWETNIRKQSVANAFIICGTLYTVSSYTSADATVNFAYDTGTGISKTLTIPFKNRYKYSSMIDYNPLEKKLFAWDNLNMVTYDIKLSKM
Test: surface plasmon resonance
Format: binding

## O=C(O[C@@H]1Cc2c(O)cc(O)cc2O[C@@H]1c1ccc(O)c(O)c1)c1cc(O)c(O)c(O)c1 [ECG]
  Kd: 19.8 µM
